From PMC11079024, “Identification of a family of species-selective complex I inhibitors as potential anthelmintics” (Nature Communications, 2024)
“And” between values parts separate entries of the source, which are not always exact repeats. Equal values may be shown once. Read-outs that look alike come from different tables or passages of the source.

What was measured:
[1] = system: C. elegans complex IV (cytochrome C oxidase); assay: In vitro complex IV activity assay, C. elegans mitochondria; assay type: biochemical, Caenorhabditis elegans; conditions: for CIV Activity: 100 μM inhibitor, in vitro activity relative to solvent control, N2 C. elegans mitochondria
Procedure, shortened: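 Cytochrome C oxidase activity read spectrophotometrically at 550 nm (30 s intervals, 15 min) as oxidation of freshly DTT-reduced CytC. Mitochondria (0.2 mg/mL) came from adult worms of six C. elegans strains grown at 20 °C. Rates were taken from initial linear phase and normalised to solvent-control wells.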

[2] = system: C. elegans complex III (decylubiquinol-cytochrome C reductase); assay: In vitro complex III activity assay, C. elegans mitochondria; assay type: biochemical, Caenorhabditis elegans; conditions: for CIII Activity: 100 μM inhibitor, in vitro activity relative to solvent control, N2 C. elegans mitochondria
Procedure, shortened: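 Mitochondria were isolated from adult C. elegans by bead-beating and differential centrifugation, then used at 0.2 mg/mL protein. Antimycin A-sensitive complex III activity was followed as decylubiquinol-driven cytochrome C reduction at 550 nm every 30 s for 15 min. Initial linear slopes were expressed as percent of solvent control.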

[3] = molecular target: C. elegans complex II (succinate dehydrogenase) (Caenorhabditis elegans, UniProt O62215+P41956+Q09545); assay: In vitro complex II activity assay, C. elegans mitochondria; assay type: biochemical; conditions: for IC50: wild-type (N2) mitochondria
C. elegans complex II (succinate dehydrogenase), sequence (P41956 30-182): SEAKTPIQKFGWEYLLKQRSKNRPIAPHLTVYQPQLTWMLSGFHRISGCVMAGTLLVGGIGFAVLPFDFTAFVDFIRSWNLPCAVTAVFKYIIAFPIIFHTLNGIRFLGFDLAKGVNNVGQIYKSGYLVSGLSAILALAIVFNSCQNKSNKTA
C. elegans complex II (succinate dehydrogenase), sequence (Q09545 22-298): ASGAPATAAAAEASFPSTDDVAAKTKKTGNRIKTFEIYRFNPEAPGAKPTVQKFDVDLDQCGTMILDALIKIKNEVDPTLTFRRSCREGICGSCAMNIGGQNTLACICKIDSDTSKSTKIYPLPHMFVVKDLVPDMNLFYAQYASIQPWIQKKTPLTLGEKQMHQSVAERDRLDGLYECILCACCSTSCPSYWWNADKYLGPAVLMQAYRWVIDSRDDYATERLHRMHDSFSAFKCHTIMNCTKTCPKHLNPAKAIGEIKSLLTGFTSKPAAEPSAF
C. elegans complex II (succinate dehydrogenase), sequence (Q09508 32-646, further chain): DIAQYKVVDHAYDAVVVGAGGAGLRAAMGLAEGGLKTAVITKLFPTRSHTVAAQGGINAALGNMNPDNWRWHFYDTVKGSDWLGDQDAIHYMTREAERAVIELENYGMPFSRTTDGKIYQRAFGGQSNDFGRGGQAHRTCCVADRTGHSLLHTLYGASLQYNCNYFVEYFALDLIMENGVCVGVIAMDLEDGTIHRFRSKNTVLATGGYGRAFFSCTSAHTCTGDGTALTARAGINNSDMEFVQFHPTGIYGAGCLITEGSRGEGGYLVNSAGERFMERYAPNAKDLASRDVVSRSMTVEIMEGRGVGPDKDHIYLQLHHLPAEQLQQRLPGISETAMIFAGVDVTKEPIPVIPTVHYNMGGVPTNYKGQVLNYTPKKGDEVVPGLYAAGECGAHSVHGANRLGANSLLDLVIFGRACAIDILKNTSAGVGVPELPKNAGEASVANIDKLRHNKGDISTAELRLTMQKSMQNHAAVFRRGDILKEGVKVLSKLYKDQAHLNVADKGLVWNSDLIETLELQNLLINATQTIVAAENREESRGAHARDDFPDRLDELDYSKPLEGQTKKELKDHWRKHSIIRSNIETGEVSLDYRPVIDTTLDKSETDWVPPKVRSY
C. elegans complex II (succinate dehydrogenase), sequence (O62215 31-145): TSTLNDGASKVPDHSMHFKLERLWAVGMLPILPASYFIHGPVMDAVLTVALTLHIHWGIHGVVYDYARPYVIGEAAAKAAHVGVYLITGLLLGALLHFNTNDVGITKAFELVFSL
Procedure, shortened: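 Mitochondria isolated from adult C. elegans were diluted to 0.2 mg/mL protein and assayed for complex II by the DCIP-coupled method. A600 was read every 30 s over 15 min, with initial linear slope expressed as percent of solvent control. Screening was at 100 μM (≥3 biological replicates), followed by dose-response.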

[4] = 100 µM compound, relative to solvent control, mean (SEM)
[5] = 100 μM of NPD compound, C. elegans mitochondria, individual biological replicates
[6] = 100 μM of NPD compound, C. elegans mitochondria, mean of four biological replicates
[7] = dose 0.0001 µM, individual replicates, wild-type C. elegans
[8] = dose 0.0005 µM, individual replicates, wild-type C. elegans
[9] = dose 0.001 µM, individual replicates, wild-type C. elegans
[10] = dose 0.0025 µM, individual replicates, wild-type C. elegans
[11] = dose 0.005 µM, individual replicates, wild-type C. elegans
[12] = dose 0.013 µM, individual replicates, wild-type C. elegans
[13] = dose 0.025 µM, individual replicates, wild-type C. elegans
[14] = dose 0.063 µM, individual replicates, wild-type C. elegans
[15] = dose 0.125 µM, individual replicates, wild-type C. elegans
[16] = dose 0.313 µM, individual replicates, wild-type C. elegans
[17] = dose 0.625 µM, individual replicates, wild-type C. elegans
[18] = dose 1.5 µM, individual replicates, wild-type C. elegans
[19] = dose 3 µM, individual replicates, wild-type C. elegans
[20] = dose 15 µM, individual replicates, wild-type C. elegans
[21] = dose 75 µM, individual replicates, wild-type C. elegans

O=C(NCCc1ccc(Cl)cc1)c1ccccc1C(F)(F)F [Wact-11]
% Activity Complex IV [1, 4]: 89.00 (0.63) % | CIV Activity ([1]; Mean): 88.998% | CIV Activity ([1]; single replicate): 91.037% and 86.647% and 91.305% and 87.004% | Percent in vitro activity, Complex IV (single replicate Rep1-Rep4) [1, 5]: 91.037% and 86.647% and 91.305% and 87.004% | Percent in vitro activity, Complex IV (Mean) [1, 6]: 88.998% | % Activity Complex III [2, 4]: 90.97 (1.75) % | CIII Activity ([2]; Mean): 90.970% | CIII Activity ([2]; single replicate): 83.802% and 95.824% and 97.988% and 86.268% | Percent in vitro activity, Complex III (single replicate Rep1-Rep4) [2, 5]: 83.802% and 95.824% and 97.988% and 86.268% | Percent in vitro activity, Complex III (Mean) [2, 6]: 90.970% | % Activity Complex II [3, 4]: 24.43 (0.62) % | CII Activity ([3]; 100 μM inhibitor, in vitro activity relative to solvent control, N2 C. elegans mitochondria, Mean): 24.430% | Percent in vitro activity, Complex II (single replicate Rep1-Rep4) [3, 5]: 25.363% and 20.777% and 26.220% | Percent in vitro activity, Complex II (Mean) [3, 6]: 24.431% | percent (%) in vitro complex II activity relative to solvent control ([3]; dose 0.0001 µM, Mean of replicates, wild-type C. elegans): 94.900% | percent (%) in vitro complex II activity relative to solvent control [3, 7]: 104.455% and 86.022% and 94.224% | percent (%) in vitro complex II activity relative to solvent control ([3]; dose 0.0005 µM, Mean of replicates, wild-type C. elegans): 92.990% | percent (%) in vitro complex II activity relative to solvent control [3, 8]: 105.223% and 78.802% and 94.946% | percent (%) in vitro complex II activity relative to solvent control ([3]; dose 0.001 µM, Mean of replicates, wild-type C. elegans): 95.541% | percent (%) in vitro complex II activity relative to solvent control [3, 9]: 97.389% and 94.470% and 94.765% | percent (%) in vitro complex II activity relative to solvent control ([3]; dose 0.0025 µM, Mean of replicates, wild-type C. elegans): 86.830% | percent (%) in vitro complex II activity relative to solvent control [3, 10]: 88.172% and 83.871% and 88.448% | percent (%) in vitro complex II activity relative to solvent control ([3]; dose 0.005 µM, Mean of replicates, wild-type C. elegans): 71.382% | percent (%) in vitro complex II activity relative to solvent control [3, 11]: 74.194% and 66.667% and 73.285% | percent (%) in vitro complex II activity relative to solvent control ([3]; dose 0.013 µM, Mean of replicates, wild-type C. elegans): 42.140% | percent (%) in vitro complex II activity relative to solvent control [3, 12]: 41.167% and 38.863% and 46.390% | percent (%) in vitro complex II activity relative to solvent control ([3]; dose 0.025 µM, Mean of replicates, wild-type C. elegans): 24.327% | percent (%) in vitro complex II activity relative to solvent control [3, 13]: 28.111% and 21.045% and 23.827% | percent (%) in vitro complex II activity relative to solvent control ([3]; dose 0.063 µM, Mean of replicates, wild-type C. elegans): 7.305% | percent (%) in vitro complex II activity relative to solvent control [3, 14]: 6.298% and 1.536% and 14.079% | percent (%) in vitro complex II activity relative to solvent control ([3]; dose 0.125 µM, Mean of replicates, wild-type C. elegans): 1.918% | percent (%) in vitro complex II activity relative to solvent control [3, 15]: 3.226% and 0.000% and 2.527% | percent (%) in vitro complex II activity relative to solvent control ([3]; dose 0.313 µM, Mean of replicates, wild-type C. elegans): 0.000% | percent (%) in vitro complex II activity relative to solvent control [3, 16]: 0.000% | percent (%) in vitro complex II activity relative to solvent control ([3]; dose 0.625 µM, Mean of replicates, wild-type C. elegans): 2.509% | percent (%) in vitro complex II activity relative to solvent control [3, 17]: 0.000% and 7.527% | percent (%) in vitro complex II activity relative to solvent control ([3]; dose 1.5 µM, Mean of replicates, wild-type C. elegans): 0.000% | percent (%) in vitro complex II activity relative to solvent control [3, 18]: 0.000% | percent (%) in vitro complex II activity relative to solvent control ([3]; dose 3 µM, Mean of replicates, wild-type C. elegans): 0.717% | percent (%) in vitro complex II activity relative to solvent control [3, 19]: 0.000% and 2.151% | percent (%) in vitro complex II activity relative to solvent control ([3]; dose 15 µM, Mean of replicates, wild-type C. elegans): 2.650% | percent (%) in vitro complex II activity relative to solvent control [3, 20]: 0.000% and 6.144% and 1.805% | percent (%) in vitro complex II activity relative to solvent control ([3]; dose 37.5 µM, Mean of replicates, wild-type C. elegans): 1.029% | percent (%) in vitro complex II activity relative to solvent control ([3]; dose 37.5 µM, individual replicates, wild-type C. elegans): 0.000% and 0.922% and 2.166% | percent (%) in vitro complex II activity relative to solvent control ([3]; dose 75 µM, Mean of replicates, wild-type C. elegans): 0.000% | percent (%) in vitro complex II activity relative to solvent control [3, 21]: 0.000% | IC50 [3]: 7.1 nM

Cc1cc(O)c2c(c1)O[C@@]1(C)CC[C@H]3C(C)(C)CCC[C@]34CO[C@@H]2[C@H]41 [Siccanin]
remaining activity at 0.0001 µM ([3]; dose 0.0001 µM, Mean of replicates, wild-type C. elegans, read-out: percent (%) in vitro complex II activity relative to solvent control): 103% | percent (%) in vitro complex II activity relative to solvent control [3, 7]: 101.370% and 113.242% | remaining activity at 0.0001 µM ([3]; dose 0.0001 µM, individual replicates, wild-type C. elegans, read-out: percent (%) in vitro complex II activity relative to solvent control): 95.2% | remaining activity at 0.0005 µM ([3]; dose 0.0005 µM, Mean of replicates, wild-type C. elegans, read-out: percent (%) in vitro complex II activity relative to solvent control): 104% | percent (%) in vitro complex II activity relative to solvent control [3, 8]: 86.897% and 113.059% and 111.964% | remaining activity at 0.001 µM ([3]; dose 0.001 µM, Mean of replicates, wild-type C. elegans, read-out: percent (%) in vitro complex II activity relative to solvent control): 84.8% | percent (%) in vitro complex II activity relative to solvent control [3, 9]: 69.310% and 87.306% and 97.900% | remaining activity at 0.0025 µM ([3]; dose 0.0025 µM, Mean of replicates, wild-type C. elegans, read-out: percent (%) in vitro complex II activity relative to solvent control): 76.6% | percent (%) in vitro complex II activity relative to solvent control [3, 10]: 54.828% and 79.635% and 95.343% | remaining activity at 0.005 µM ([3]; dose 0.005 µM, Mean of replicates, wild-type C. elegans, read-out: percent (%) in vitro complex II activity relative to solvent control): 64.8% | percent (%) in vitro complex II activity relative to solvent control [3, 11]: 62.831% and 72.146% | remaining activity at 0.005 µM ([3]; dose 0.005 µM, individual replicates, wild-type C. elegans, read-out: percent (%) in vitro complex II activity relative to solvent control): 59.3% | remaining activity at 0.013 µM ([3]; dose 0.013 µM, Mean of replicates, wild-type C. elegans, read-out: percent (%) in vitro complex II activity relative to solvent control): 42.5% | percent (%) in vitro complex II activity relative to solvent control [3, 12]: 45.480% and 44.018% | remaining activity at 0.013 µM ([3]; dose 0.013 µM, individual replicates, wild-type C. elegans, read-out: percent (%) in vitro complex II activity relative to solvent control): 37.9% | remaining activity at 0.025 µM ([3]; dose 0.025 µM, Mean of replicates, wild-type C. elegans, read-out: percent (%) in vitro complex II activity relative to solvent control): 27.5% | percent (%) in vitro complex II activity relative to solvent control [3, 13]: 28.128% and 27.763% | remaining activity at 0.025 µM ([3]; dose 0.025 µM, individual replicates, wild-type C. elegans, read-out: percent (%) in vitro complex II activity relative to solvent control): 26.6% | remaining activity at 0.063 µM ([3]; dose 0.063 µM, Mean of replicates, wild-type C. elegans, read-out: percent (%) in vitro complex II activity relative to solvent control): 13% | percent (%) in vitro complex II activity relative to solvent control [3, 14]: 17.717% and 11.872% | remaining activity at 0.063 µM ([3]; dose 0.063 µM, individual replicates, wild-type C. elegans, read-out: percent (%) in vitro complex II activity relative to solvent control): 9.48% | remaining activity at 0.125 µM ([3]; dose 0.125 µM, Mean of replicates, wild-type C. elegans, read-out: percent (%) in vitro complex II activity relative to solvent control): 9.4% | percent (%) in vitro complex II activity relative to solvent control [3, 15]: 1.897% and 15.890% and 10.411% | remaining activity at 0.313 µM ([3]; dose 0.313 µM, Mean of replicates, wild-type C. elegans, read-out: percent (%) in vitro complex II activity relative to solvent control): 6.54% | percent (%) in vitro complex II activity relative to solvent control [3, 16]: 4.655% and 12.968% and 2.009% | remaining activity at 0.625 µM ([3]; dose 0.625 µM, Mean of replicates, wild-type C. elegans, read-out: percent (%) in vitro complex II activity relative to solvent control): 3.28% | percent (%) in vitro complex II activity relative to solvent control [3, 17]: 3.621% and 6.210% | remaining activity at 1.5 µM ([3]; dose 1.5 µM, Mean of replicates, wild-type C. elegans, read-out: percent (%) in vitro complex II activity relative to solvent control): 9.39% | percent (%) in vitro complex II activity relative to solvent control [3, 18]: 5.345% and 10.046% and 12.785% | remaining activity at 3 µM ([3]; dose 3 µM, Mean of replicates, wild-type C. elegans, read-out: percent (%) in vitro complex II activity relative to solvent control): 3.77% | percent (%) in vitro complex II activity relative to solvent control [3, 19]: 3.448% and 7.854% | remaining activity at 15 µM ([3]; dose 15 µM, Mean of replicates, wild-type C. elegans, read-out: percent (%) in vitro complex II activity relative to solvent control): 1.28% | percent (%) in vitro complex II activity relative to solvent control [3, 20]: 1.461% and 2.374% | remaining activity at 37.5 µM ([3]; dose 37.5 µM, Mean of replicates, wild-type C. elegans, read-out: percent (%) in vitro complex II activity relative to solvent control): 0% | remaining activity at 37.5 µM ([3]; dose 37.5 µM, individual replicates, wild-type C. elegans, read-out: percent (%) in vitro complex II activity relative to solvent control): 0% | remaining activity at 75 µM ([3]; dose 75 µM, Mean of replicates, wild-type C. elegans, read-out: percent (%) in vitro complex II activity relative to solvent control): 1.83% | percent (%) in vitro complex II activity relative to solvent control [3, 21]: 5.480% | IC50 [3]: 10.7 nM
